Consider 2 compounds from US12414948B2, “Methods” (INTRA-CELLULAR THERAPIES, INC., priority 2022, dated 2025).

For data set [1], the system named is blood-brain barrier (NaFl brain penetration). As to the kind of experiment: BBB permeability assay (sodium fluorescein), LPS paradigm. The data set is classed as in vivo, mouse. The following applies: mice, 2 h, label LPS = LPS alone, label Luma = Luma 3 mg/kg IP co-injected with LPS. The method, then: BBB Permeability Assay. […] Mice are perfused with 15 ml 1×PBS solution.
Systemic inflammation is associated with increased permeability of the BBB, and this has been discussed as a potential factor underlying depression pathophysiology. […] Forty-five minutes before sample collection, mice receive NaFl injections (200 μl of 10% solution, IP) (Table 3).

Another data set deals with Sprague-Dawley rats. As to the kind of experiment: Reward sniffing test (female urine sniffing test, FUST), LPS-induced anhedonia. The following applies: rats given LPS 1 mg/kg SC, label LPS = LPS + Vehicle, label Luma = Luma 1 mg/kg IP 24 h before and 24 h after LPS. The format is in vivo, rat. The method, then:
All other reagents are obtained in the highest purity available from Sigma-Aldrich (St. Louis, MO) unless otherwise noted. […] Some rodents are given a cotreatment with a subcutaneous (SC) injection of lipopolysaccharide (LPS, 500 μg/kg; Sigma-Aldrich, ref #0127:B8) diluted in 0.9% injectable saline while control group animals receive injections of all vehicles matching the experimental conditions. […] On day 2, either no injection for naïve rats, or saline or LPS is injected (1 mg/kg, SC).
Behavioral Evaluation. All behavioral tests are performed in the morning with adult male Sprague-Dawley rats (n=9-11 per group for the experiments with LPS, and n=13-14 per group for the naïve rats).
Reward Sniffing Test (also known also as female urine sniffing test (FUST)): In this anhedonia-based assay, rats are brought to a well-ventilated testing room under dim lighting. A sterile cotton-tipped applicator is attached to one wall in the home cage for 1 hour to habituate rats to this new object. For the 2 phases of the 5 minute test, rats are first exposed to a new cotton tip dipped in sterile water as a control that is removed at the end of the 5 minutes; 45 minutes later, another cotton tip previously dipped into fresh rat urine collected from females of the same strain is attached to the cage wall. Male behavior is video recorded and latency to first sniff of the cotton tip and total time spent sniffing the cotton-tipped applicator are determined.
In a pilot study, a dose response curve is conducted with varying doses of LPS to select an optimal dose for inducing an anhedonic response in rats. Based on these studies, a SC dose of 1 mg/kg LPS is selected. […] This is followed 24 hours later by an injection of LPS (1 mg/kg; SC). […] Control rats are administered saline instead of LPS and vehicle instead of lumateperone. Anhedonia is assessed using FUST (female urine sniffing test) and measuring latency to sniff the reward combined with time spent sniffing the reward. Latency sniffing water is used as a control. […]

In data set [2] the test system is PBMCs from patients with schizophrenia and co-morbid depression. As to the kind of experiment: Post-hoc analysis of inflammatory biomarkers in PBMCs, phase 3 clinical trial. The format is in vivo, human. As to the method:
A randomized, double-blind, placebo-controlled, phase 3 clinical trial was conducted with 450 patients with schizophrenia, aged 18 to 60 years, who were experiencing an acute exacerbation of psychosis. Patients were included if they were experiencing an acute exacerbation of psychosis, defined as a total score on the Brief Psychiatric Rating Scale of […] or higher, with a score of 4 or higher on 2 or more positive symptoms, and onset of the acute episode within 4 weeks of screening. Patients were required to have a score of 4 or higher, indicating moderate to severe disease severity, on the Clinical Global Impression-Severity of Illness (CGI-S) at screening and baseline. Severity of illness was confirmed at baseline by a Positive and Negative Syndrome Scale (PANSS) total score of 70 or higher, indicating moderate to extreme symptoms of schizophrenia. A subgroup of these patients experienced co-morbid depression symptoms at baseline (defined as having a Calgary Depression Scale for Schizophrenia (CDSS) score greater than 6 at baseline). Full details of the clinical study were reported in Correll et al., JAMA Psychiatry, 77(4): 349-358 (2020).
Using blood samples stored from the study, a post-hoc analysis of inflammatory biomarkers in PBMCs from the patients with schizophrenia and co-morbid depression is conducted. […] Day 0 samples are available for 20 patients, while day 28 samples are available only for 18 patients. Mean baseline CDSS is 10.0, and mean baseline PANSS total score is 88.7 in the selected patients.
Samples were processed to isolate PBMC according to standard procedures using the Ficoll-Paque method. Statistical analysis was performed using the paired t-test, two-tailed. Samples were tested for C-reactive protein (CRP), serum amyloid A (SAA), soluble CAM-1, soluble VCAM-1, IL-1β, TNF-αL, IL-6, IL-10, IL-2, IL-8, IL-13, and IFN-γ. ICAM-1 and VCAM-1 are expressed by the vascular endothelium, macrophages, and lymphocytes. Upon cytokine stimulation, their concentrations greatly increase. ICAM-1 can be induced by IL-1β and TNF. ICAM and VCAM proteins may also be involved in pathogen transit into CNS.
The results are shown in the table below (biomarker levels expressed in ng/mL; some values of N are less than the patient totals due to samples with levels of biomarker below the minimum for quantification): […]

In data set [3] the test system is patients with schizophrenia. As to the kind of experiment: Randomized, double-blind, placebo-controlled phase 3 clinical trial in schizophrenia. The format is in vivo, human. As to the method:
A randomized, double-blind, placebo-controlled, phase 3 clinical trial was conducted with 450 patients with schizophrenia, aged 18 to 60 years, who were experiencing an acute exacerbation of psychosis. Patients were included if they were experiencing an acute exacerbation of psychosis, defined as a total score on the Brief Psychiatric Rating Scale of […] or higher, with a score of 4 or higher on 2 or more positive symptoms, and onset of the acute episode within 4 weeks of screening. Patients were required to have a score of 4 or higher, indicating moderate to severe disease severity, on the Clinical Global Impression-Severity of Illness (CGI-S) at screening and baseline. […]
The primary efficacy end point was mean change from baseline to day 28 in the Positive and Negative Syndrome Scale (PANSS) total score versus placebo. […] The PANSS subscale scores, social function, safety, and tolerability were also assessed. Primary and key secondary efficacy measures were assessed weekly. Safety was assessed by treatment-emergent adverse events (TEAEs), modified physical examinations, 12-lead electrocardiograms (ECGs), vital signs, and clinical laboratory tests (blood and urine samples for clinical laboratory analysis were collected from all subjects upon screening and on Days 1, 8, 28, and 33, following overnight fast).

Setting [4] is: Day 28 of 60 mg lumateperone once daily, PBMC, schizophrenia patients with co-morbid depression.

Turning to “lipopolysaccharide [LPS, reference compound]”, the “NaFl brain penetration (cerebrum/serum ratio)” value in data set [1] was 1.406 ± 0.0873 arbitrary units normalized to control. Further, in the data set on Sprague-Dawley rats (control test), the “FUST Latency sniffing water” value came out at 274.27 s. In addition, in the data set with Sprague-Dawley rats, the “FUST Latency sniffing reward” value was determined as 164.2 s and the “FUST Time sniffing reward” value came to 11.11 s.

Take `CN1CCN2c3c(cccc31)[C@@H]1CN(CCCC(=O)c3ccc(F)cc3)CC[C@@H]12` [Luma, lumateperone]: in data set [2] (setting [4]), the “CRP, Median” value is listed as 38.0 ng/mL; the “IFN-γ, Average” value came to 0.86 ng/mL; the “IFN-γ, Median” value is 0.71 ng/mL; the “IL-1β, Median” value was determined as 0.74 ng/mL. For the same compound, in data set [2] (setting [4]), the “IL-2, Average” value came to 0.37 ng/mL; the “IL-2, Median” value is 0.25 ng/mL; the “IL-6, Average” value stood at 0.55 ng/mL; the “IL-6, Median” value stood at 0.32 ng/mL. In data set [2] (setting [4]), the “IL-8, Median” value is listed as 44.0 ng/mL; the “IL-10, Median” value is 0.21 ng/mL; the “TNF-α, Average” value was determined as 0.83 ng/mL; the “TNF-α, Median” value was determined as 0.43 ng/mL. Besides, the “sVCAM-1, Median” value in data set [2] (setting [4]) was 42.0 ng/mL. Further, the “Levels of inflammatory biomarkers in blood cells (PBMCs)” value in data set [2] (after 28 days of treatment, versus baseline, patients with schizophrenia and co-morbid depression) is “significantly reduced”. Moreover, in data set [3] (patients with acute exacerbation of psychosis, 60 mg or 40 mg lumateperone tosylate once daily for 28 days vs placebo), the Symptoms of schizophrenia entry is “effective for improving the symptoms of schizophrenia”. Besides, in data set [3] (patients with schizophrenia, 60 mg or 40 mg lumateperone tosylate once daily for 28 days), the Safety profile entry was “favorable safety profile”.
